Legend:
CAMK4 = biological target: T1, CAMK4 (Homo sapiens, UniProt Q16566); assay: KINOMEscan; type: binding; settings: 1 μM
T1 construct: purchased Eurofins DiscoverX Corporation (KINOMEscan)

BMPR2 = biological target: T2, BMPR2 (Homo sapiens, UniProt Q13873); assay: KINOMEscan; type: binding; settings: 1 μM
T2 construct: purchased Eurofins DiscoverX Corporation (KINOMEscan)

DAPK3 = biological target: T3, DAPK3 (Homo sapiens, UniProt O43293); assay: KINOMEscan; type: binding; settings: 1 μM
T3 construct: purchased Eurofins DiscoverX Corporation

RIPK5 = RIPK5 (Homo sapiens, UniProt Q6XUX3); assay: KINOMEscan; type: binding; settings: 1 μM
TRKB = biological target: T4, TRKB (Homo sapiens, UniProt Q16620); assay: KINOMEscan; type: binding; settings: 1 μM
T4 construct: purchased Eurofins DiscoverX Corporation

TYRO3 = TYRO3 (Homo sapiens, UniProt Q06418); assay: KINOMEscan; type: binding; settings: 1 μM
EGFR(L858R+T790M) = EGFR(L858R+T790M) (Homo sapiens, UniProt P00533, L858R/T790M); assay: KINOMEscan; type: binding; settings: 1 μM
SNARK = SNARK (Homo sapiens, UniProt Q9H093); assay: KINOMEscan; type: binding; settings: 1 μM
TLK1 = biological target: T5, TLK1 (Homo sapiens, UniProt Q9UKI8); assay: KINOMEscan; type: binding; settings: 1 μM
T5 construct: purchased Eurofins DiscoverX Corporation

PIK3CG = PIK3CG (Homo sapiens, UniProt P48736); assay: KINOMEscan; type: binding; settings: 1 μM
PIK3CA = PIK3CA (Homo sapiens, UniProt P42336); assay: KINOMEscan; type: binding; settings: 1 μM
TXK = TXK (Homo sapiens, UniProt P42681); assay: KINOMEscan; type: binding; settings: 1 μM
EPHA1 = EPHA1 (Homo sapiens, UniProt P21709); assay: KINOMEscan; type: binding; settings: 1 μM
MAK = biological target: T6, MAK (Homo sapiens, UniProt P20794); assay: KINOMEscan; type: binding; settings: 1 μM
T6 construct: purchased Eurofins DiscoverX Corporation

PKNB(M.tuberculosis) = PKNB(M.tuberculosis) (Mycobacterium tuberculosis, UniProt P9WI81); assay: KINOMEscan; type: binding; settings: 1 μM
[1] = biological target: T7, EGFR [L858R], cytoplasmic domain (668-end) (Homo sapiens, UniProt P00533, L858R); assay: Time-dependent kinase inhibition assay (Sox-based substrate); type: biochemical; settings: LR, enzyme 1.0 nM, 1 mM ATP
T7 construct: EGFR [L858R], cytoplasmic domain (668-end), GST-tagged, SignalChem; purchased SignalChem E10-122BG
Description: (§1) Biochemical assays were performed with commercially available EGFR WT, cytoplasmic domain (669–1210), GST-tagged, Carna (Cat#/Lot#: 08-115/21CBS-0127H), EGFR [L858R], cytoplasmic domain (668-end), GST-tagged, SignalChem (Cat#/Lot#: E10-122BG/D2411-4), EGFR [T790M/L858R] cytoplasmic domain (669–1210), GST-tagged, Carna (Cat#/Lot#: 08-510/12CBS-0765M). […] BSA was not included in this experiment to prevent interference with irreversible inhibitor characterization via off-target binding. All reactions were run for 240 min at 30 °C. Time-dependent fluorescence from the Sox-based substrate was monitored in PerkinElmer ProxiPlate-384 Plus, white shallow well microplates (Cat. #6008280) Biotek Synergy Neo 2 microplate reader with excitation (360 nm) and emission (485 nm) wavelengths. 4 was dosed between 0 and 10 µM in 24-point curves with 1.5-fold dilutions. Fluorescence, determined with identical reactions but lacking purified enzyme or crude cell lysate was subtracted from the total fluorescence signal for each time point, with both determined in duplicate, to obtain corrected relative fluorescence units (RFU). Corrected RFU values then were plotted vs. time and the reaction velocity for the first ~40 min (initial reaction rates) was determined from the slope using GraphPad Prism (La Jolla, CA) with units of RFU/min.

[2] = biological target: T8, EGFR WT, cytoplasmic domain (669–1210) (Homo sapiens, UniProt P00533); assay: as above; type: biochemical; settings: enzyme 2.0 nM, 1 mM ATP
T8 construct: EGFR WT, cytoplasmic domain (669–1210), GST-tagged, Carna; purchased Carna 08-115
Description: as §1

[3] = biological target: T9, EGFR [T790M/L858R] cytoplasmic domain (669–1210) (Homo sapiens, UniProt P00533, L858R/T790M); assay: as above; type: biochemical; settings: LRTM, enzyme 2.0 nM, 1 mM ATP
T9 construct: EGFR [T790M/L858R] cytoplasmic domain (669–1210), GST-tagged, Carna; purchased Carna 08-510
Description: as §1

CAMK2B = biological target: T10, CAMK2B (Homo sapiens, UniProt Q13554); assay: KINOMEscan; type: binding; settings: 1 μM
T10 construct: purchased Eurofins DiscoverX Corporation (KINOMEscan)

YSK1 = YSK1 (Homo sapiens, UniProt O00506); assay: KINOMEscan; type: binding; settings: 1 μM
CSNK1A1L = biological target: T11, CSNK1A1L (Homo sapiens, UniProt Q8N752); assay: KINOMEscan; type: binding; settings: 1 μM
T11 construct: purchased Eurofins DiscoverX Corporation

CDC2L2 = biological target: T12, CDC2L2 (Homo sapiens, UniProt Q9UQ88); assay: KINOMEscan; type: binding; settings: 1 μM
T12 construct: purchased Eurofins DiscoverX Corporation (KINOMEscan)

CDC2L1 = biological target: T13, CDC2L1 (Homo sapiens, UniProt P21127); assay: KINOMEscan; type: binding; settings: 1 μM
T13 construct: purchased Eurofins DiscoverX Corporation (KINOMEscan)

PIK3CA(C420R) = PIK3CA(C420R) (Homo sapiens, UniProt P42336, C420R); assay: KINOMEscan; type: binding; settings: 1 μM
PCTK2 = PCTK2 (Homo sapiens, UniProt Q00537); assay: KINOMEscan; type: binding; settings: 1 μM
RAF1 = RAF1 (Homo sapiens, UniProt P04049); assay: KINOMEscan; type: binding; settings: 1 μM
TIE1 = biological target: T14, TIE1 (Homo sapiens, UniProt P35590); assay: KINOMEscan; type: binding; settings: 1 μM
T14 construct: purchased Eurofins DiscoverX Corporation

AXL = AXL (Homo sapiens, UniProt P30530); assay: KINOMEscan; type: binding; settings: 1 μM
YSK4 = YSK4 (Homo sapiens, UniProt Q56UN5); assay: KINOMEscan; type: binding; settings: 1 μM
ABL2 = biological target: T15, ABL2 (Homo sapiens, UniProt P42684); assay: KINOMEscan; type: binding; settings: 1 μM
T15 construct: purchased Eurofins DiscoverX Corporation
T15 sequence (P42684 whole entry): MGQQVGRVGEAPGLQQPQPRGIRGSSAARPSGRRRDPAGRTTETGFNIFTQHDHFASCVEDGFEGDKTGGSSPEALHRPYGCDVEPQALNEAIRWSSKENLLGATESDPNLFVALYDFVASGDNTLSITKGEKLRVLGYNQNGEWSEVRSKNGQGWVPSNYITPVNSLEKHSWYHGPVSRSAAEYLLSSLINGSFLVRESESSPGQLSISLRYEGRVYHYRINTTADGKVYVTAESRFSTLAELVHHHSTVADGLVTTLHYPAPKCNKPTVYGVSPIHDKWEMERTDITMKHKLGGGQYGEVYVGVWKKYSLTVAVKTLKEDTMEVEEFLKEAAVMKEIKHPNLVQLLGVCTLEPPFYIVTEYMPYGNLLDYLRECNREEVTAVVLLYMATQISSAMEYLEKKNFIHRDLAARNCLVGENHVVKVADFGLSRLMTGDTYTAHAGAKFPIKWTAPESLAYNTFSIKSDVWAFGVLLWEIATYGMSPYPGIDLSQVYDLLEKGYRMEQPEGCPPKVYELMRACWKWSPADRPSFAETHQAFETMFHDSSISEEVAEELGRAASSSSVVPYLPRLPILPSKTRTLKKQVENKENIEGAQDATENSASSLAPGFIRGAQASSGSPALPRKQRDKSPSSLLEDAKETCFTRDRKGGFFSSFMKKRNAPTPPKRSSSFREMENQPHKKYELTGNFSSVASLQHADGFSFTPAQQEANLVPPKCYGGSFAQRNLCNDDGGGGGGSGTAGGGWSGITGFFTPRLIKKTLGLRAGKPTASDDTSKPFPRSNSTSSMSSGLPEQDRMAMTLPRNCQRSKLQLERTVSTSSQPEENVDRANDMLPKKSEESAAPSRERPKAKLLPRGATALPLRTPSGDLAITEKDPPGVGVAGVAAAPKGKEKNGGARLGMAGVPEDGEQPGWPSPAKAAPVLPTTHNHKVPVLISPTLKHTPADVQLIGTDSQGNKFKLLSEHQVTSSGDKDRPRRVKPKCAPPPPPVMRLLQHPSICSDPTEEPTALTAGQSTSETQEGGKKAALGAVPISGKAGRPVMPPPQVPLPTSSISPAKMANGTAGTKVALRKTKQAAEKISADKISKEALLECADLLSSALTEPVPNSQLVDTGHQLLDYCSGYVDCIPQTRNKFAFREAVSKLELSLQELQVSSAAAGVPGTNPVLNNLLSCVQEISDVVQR

PCTK2, sequence (Q00537 whole entry): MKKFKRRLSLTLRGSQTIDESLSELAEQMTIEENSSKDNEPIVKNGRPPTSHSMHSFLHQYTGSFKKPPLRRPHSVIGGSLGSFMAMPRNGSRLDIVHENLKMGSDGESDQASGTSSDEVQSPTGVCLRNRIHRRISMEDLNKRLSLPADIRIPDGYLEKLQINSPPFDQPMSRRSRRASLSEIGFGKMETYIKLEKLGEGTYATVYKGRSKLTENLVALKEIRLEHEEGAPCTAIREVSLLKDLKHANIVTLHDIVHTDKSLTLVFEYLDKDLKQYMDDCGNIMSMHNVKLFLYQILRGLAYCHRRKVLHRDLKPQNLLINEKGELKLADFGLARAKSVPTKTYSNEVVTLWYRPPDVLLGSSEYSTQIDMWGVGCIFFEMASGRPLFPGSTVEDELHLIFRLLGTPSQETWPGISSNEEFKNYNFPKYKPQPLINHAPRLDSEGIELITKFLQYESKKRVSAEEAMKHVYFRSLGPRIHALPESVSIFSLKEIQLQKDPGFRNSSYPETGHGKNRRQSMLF
T4 sequence (Q16620 32-822): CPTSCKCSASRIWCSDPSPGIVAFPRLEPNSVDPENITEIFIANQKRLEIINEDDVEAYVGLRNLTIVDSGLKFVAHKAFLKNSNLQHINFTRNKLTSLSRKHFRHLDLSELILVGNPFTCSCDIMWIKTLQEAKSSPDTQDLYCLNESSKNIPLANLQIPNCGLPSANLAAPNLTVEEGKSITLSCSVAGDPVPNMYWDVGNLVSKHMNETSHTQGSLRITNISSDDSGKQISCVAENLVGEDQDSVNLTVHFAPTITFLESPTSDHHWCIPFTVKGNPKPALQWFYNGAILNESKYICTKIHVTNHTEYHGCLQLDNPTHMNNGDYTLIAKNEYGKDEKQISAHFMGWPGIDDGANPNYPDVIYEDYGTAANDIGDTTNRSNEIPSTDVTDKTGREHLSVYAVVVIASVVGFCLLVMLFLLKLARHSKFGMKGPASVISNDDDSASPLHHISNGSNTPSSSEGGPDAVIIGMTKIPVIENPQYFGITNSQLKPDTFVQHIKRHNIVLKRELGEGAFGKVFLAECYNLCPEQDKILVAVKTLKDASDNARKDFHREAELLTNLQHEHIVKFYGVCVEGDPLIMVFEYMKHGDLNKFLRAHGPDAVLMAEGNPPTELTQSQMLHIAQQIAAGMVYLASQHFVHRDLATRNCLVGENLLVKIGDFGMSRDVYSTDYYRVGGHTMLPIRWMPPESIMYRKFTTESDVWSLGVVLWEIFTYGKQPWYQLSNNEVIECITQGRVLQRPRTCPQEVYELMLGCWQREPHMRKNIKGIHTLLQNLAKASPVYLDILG
PIK3CA, sequence (P42336 whole entry): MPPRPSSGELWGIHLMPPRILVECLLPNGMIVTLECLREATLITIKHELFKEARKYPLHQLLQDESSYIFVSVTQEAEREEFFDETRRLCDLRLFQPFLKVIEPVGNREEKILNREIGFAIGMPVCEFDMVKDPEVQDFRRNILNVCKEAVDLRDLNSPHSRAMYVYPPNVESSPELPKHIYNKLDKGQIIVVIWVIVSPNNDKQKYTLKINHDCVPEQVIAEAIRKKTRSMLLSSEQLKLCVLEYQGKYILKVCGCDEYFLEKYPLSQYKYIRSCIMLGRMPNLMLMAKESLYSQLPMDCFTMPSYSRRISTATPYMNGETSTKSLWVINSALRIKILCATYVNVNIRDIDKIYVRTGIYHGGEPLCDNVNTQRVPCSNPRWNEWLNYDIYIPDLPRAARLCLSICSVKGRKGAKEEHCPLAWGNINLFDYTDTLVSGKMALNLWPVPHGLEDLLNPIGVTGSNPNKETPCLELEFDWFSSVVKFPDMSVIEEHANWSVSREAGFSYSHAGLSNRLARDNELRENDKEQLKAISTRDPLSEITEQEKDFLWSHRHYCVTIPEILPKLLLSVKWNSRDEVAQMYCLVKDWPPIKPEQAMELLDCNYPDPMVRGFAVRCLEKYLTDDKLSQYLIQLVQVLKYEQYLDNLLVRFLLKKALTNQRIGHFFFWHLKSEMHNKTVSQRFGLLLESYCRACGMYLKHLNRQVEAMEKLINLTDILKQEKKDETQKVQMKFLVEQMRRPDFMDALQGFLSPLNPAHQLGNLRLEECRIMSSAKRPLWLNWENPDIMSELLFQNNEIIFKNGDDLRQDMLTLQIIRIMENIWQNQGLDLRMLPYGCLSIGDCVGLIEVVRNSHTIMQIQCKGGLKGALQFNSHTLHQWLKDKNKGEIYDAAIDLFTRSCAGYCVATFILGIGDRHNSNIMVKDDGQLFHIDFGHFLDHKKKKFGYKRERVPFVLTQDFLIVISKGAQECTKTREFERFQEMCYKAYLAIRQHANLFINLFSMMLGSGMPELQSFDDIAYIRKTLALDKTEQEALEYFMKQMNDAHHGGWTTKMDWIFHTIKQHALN
T11 sequence (Q8N752 whole entry): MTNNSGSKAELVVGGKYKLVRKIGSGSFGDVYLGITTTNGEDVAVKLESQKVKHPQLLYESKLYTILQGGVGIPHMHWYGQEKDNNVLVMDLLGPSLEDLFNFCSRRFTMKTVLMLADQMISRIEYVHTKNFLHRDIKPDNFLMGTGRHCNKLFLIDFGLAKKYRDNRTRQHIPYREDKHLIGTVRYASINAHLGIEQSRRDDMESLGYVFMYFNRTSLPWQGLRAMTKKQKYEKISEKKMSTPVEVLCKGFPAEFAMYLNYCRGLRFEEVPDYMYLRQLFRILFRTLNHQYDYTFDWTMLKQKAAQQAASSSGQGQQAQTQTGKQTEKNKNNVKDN
T5 sequence (Q9UKI8 whole entry): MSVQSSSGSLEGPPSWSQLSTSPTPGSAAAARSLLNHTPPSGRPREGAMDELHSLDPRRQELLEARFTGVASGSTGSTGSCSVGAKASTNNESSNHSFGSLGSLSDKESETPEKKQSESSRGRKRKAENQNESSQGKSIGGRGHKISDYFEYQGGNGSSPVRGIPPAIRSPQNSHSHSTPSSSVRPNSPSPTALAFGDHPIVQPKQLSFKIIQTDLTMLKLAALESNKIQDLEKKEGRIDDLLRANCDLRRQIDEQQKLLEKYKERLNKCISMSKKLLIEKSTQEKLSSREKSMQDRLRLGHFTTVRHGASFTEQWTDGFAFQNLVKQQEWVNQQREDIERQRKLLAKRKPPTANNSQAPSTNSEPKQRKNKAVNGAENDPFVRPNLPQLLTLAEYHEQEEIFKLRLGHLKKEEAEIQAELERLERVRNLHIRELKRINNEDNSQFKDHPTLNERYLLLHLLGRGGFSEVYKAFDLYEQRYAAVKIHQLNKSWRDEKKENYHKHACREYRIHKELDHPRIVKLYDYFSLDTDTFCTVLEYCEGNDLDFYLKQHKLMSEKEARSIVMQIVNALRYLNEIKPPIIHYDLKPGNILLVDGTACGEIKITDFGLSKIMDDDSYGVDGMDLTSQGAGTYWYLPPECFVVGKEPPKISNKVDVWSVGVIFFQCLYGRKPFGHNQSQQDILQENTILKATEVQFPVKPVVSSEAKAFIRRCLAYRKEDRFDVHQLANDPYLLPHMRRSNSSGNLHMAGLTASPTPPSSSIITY
PIK3CA(C420R), sequence (P42336 whole entry C420R): as the sequence (P42336 whole entry) above, with C420R counted along it

How did the POC (CAMK4) turn out when C=CC(=O)Nc1ccc(OC)c(Nc2cc(-c3[nH]c(CC)nc3-c3cccc(NC(=O)c4cccc5c4NC(=O)c4ccccc4N5)c3)ccn2)c1 [Compound 4] was run?
Its POC is 99% of control.

What about the POC (BMPR2) of the same compound?
The POC was 88% of control.

What about the POC (DAPK3) of the same compound?
Its POC is 62% of control.

And the POC (RIPK5)?
Its POC is 79% of control.

And the POC (TRKB)?
The POC was 100% of control.

And the POC (TYRO3)?
The POC was 32% of control.

And the POC (EGFR(L858R+T790M))?
Its POC is 8.3% of control.

What about the POC (SNARK) of the same compound?
The POC was 100% of control.

What about the POC (TLK1) of the same compound?
Its POC is 87% of control.

And the POC (PIK3CG)?
The POC was 65% of control.

What about the POC (PIK3CA) of the same compound?
The POC was 70% of control.

And the POC (TXK)?
The POC was 42% of control.

What about the POC (EPHA1) of the same compound?
Its POC is 100% of control.

What about the POC (MAK) of the same compound?
The POC was 89% of control.

And the POC (PKNB(M.tuberculosis))?
The POC was 97% of control.

And the Ki [1]?
Its Ki is 0.61 ± 0.03 µM.

What about the kinact [1] of the same compound?
Its kinact is 0.00867 s⁻¹.

What about the kinact/KI [1] of the same compound?
Its kinact/KI is 14100 ± 300 M⁻¹ s⁻¹.

And the Ki [2]?
The Ki was 1.2 ± 0.04 µM.

What about the kinact [2] of the same compound?
The kinact was 0.003 s⁻¹.

And the kinact/KI [2]?
Its kinact/KI is 2500 ± 30 M⁻¹ s⁻¹.

And the Ki [3]?
The Ki was 1.6 ± 0.1 µM.

What about the kinact [3] of the same compound?
Its kinact is 0.00167 s⁻¹.

And the kinact/KI [3]?
The kinact/KI was 1070 ± 40 M⁻¹ s⁻¹.

What about the POC (CAMK2B) of the same compound?
The POC was 72% of control.

And the POC (YSK1)?
Its POC is 76% of control.

And the POC (CSNK1A1L)?
The POC was 91% of control.

What about the POC (CDC2L2) of the same compound?
The POC was 91% of control.

And the POC (CDC2L1)?
The POC was 100% of control.

And the POC (PIK3CA(C420R))?
The POC was 66% of control.

And the POC (PCTK2)?
The POC was 100% of control.

What about the POC (RAF1) of the same compound?
The POC was 73% of control.

What about the POC (TIE1) of the same compound?
The POC was 100% of control.

And the POC (AXL)?
The POC was 98% of control.

What about the POC (YSK4) of the same compound?
The POC was 88% of control.

What about the POC (ABL2) of the same compound?
Its POC is 92% of control.
